Test results reported in patent US20210038502A1, “S1PR2 ANTAGONISTS FOR TREATING DISEASES INVOLVING ABNORMAL IMMUNE RESPONSES” (INSERM (Institut National de la Santé et de la Recherche …, priority 2017, published 2021).
pKd: −log10 of the molar value.

Experiments:
tonsil TCM and TEM cells = experiment: Transwell migration of tonsil memory T cells (TCM, TEM) in presence of S1P; assay type: cell-based, human; settings: for Impact on memory T cell migration in the presence of S1P: tonsil memory T cells
[1] = test system: peripheral T cells and NK cells; settings: cited from earlier work
tonsil naive T cells = experiment: Transwell chemotaxis of tonsil naive T cells towards S1P; assay type: cell-based, human; settings: for Effect of pharmacological inhibitor on tonsil naive T cell migration to S1P: tonsil naive T cells, 2 h pre-incubation with inhibitor
tonsil T cell subsets = experiment: Transwell migration of tonsil T cell subsets toward CXCL12 +/- S1P
Description: Results are shown as migration index.
All material was used after obtaining informed consent and the research was conducted in accordance with the Helsinki Declaration. […] Pediatric tonsils were obtained from patients undergoing tonsillectomy and were cut into pieces using a scalpel and then passed through a 70 μM cell strained to produce a cell suspension. Cells were then ficollized and washed before migration studies.
Tonsil lymphocytes or PBMC were suspended in RPMI1640 supplemented with 4 mg/ml fatty acid-free bovine albumin (Sigma, St-Louis, USA). […] Cell migration was analyzed in Transwell chambers (Costar, Cambridge, USA) with 5 μm pore-width polycarbonate filters. […] PBMC or tonsil cells were added to the top chambers of the transwell systems in the presence or absence of the pharmacological inhibitors and incubated at 37° C. for 2 hours. The chemoattractants were then added in the lower chamber and the cells were allowed to migrate for 2 hours. Transmigrated cells were stained for CD3 (UCHT1), CD4 (RPA-T4), CD8 (RPA-T8), CD45RO (UCHL1), CCR7 (G043H7), CD69 (FN50), CD103 (Ber-act8), CD38 (HIT32) and HLA-DR (LN3) and analyzed/counted by flow cytometry (MACSquant, Miltenyi biotec, Bergisch Gladbach, Germany). All antibodies were purchased from BD-Biosciences (San Jose, Calif.), eBioscience (San Diego, Calif.), Beckman-Coulter (Miami, Fla.) or Biolegend (San Diego, Calif.). […] The percentage of input was calculated as the ratio between the number of cells migrating in a given condition and the number of cells used for the chemotaxis assay.

[2] = test system: tonsil CD4+ TRM cells (CD69 positive); experiment: Transwell migration of tonsil resident memory T cells (TRM) in presence of S1P; settings: irrespective of CD103 expression
Description: All material was used after obtaining informed consent and the research was conducted in accordance with the Helsinki Declaration. Human peripheral blood was obtained from healthy donors. Cells were ficollized and then washed several times in complete medium before resuspension in chemotaxis medium. Pediatric tonsils were obtained from patients undergoing tonsillectomy and were cut into pieces using a scalpel and then passed through a 70 μM cell strained to produce a cell suspension. Cells were then ficollized and washed before migration studies.
Tonsil lymphocytes or PBMC were suspended in RPMI1640 supplemented with 4 mg/ml fatty acid-free bovine albumin (Sigma, St-Louis, USA). […] Cell migration was analyzed in Transwell chambers (Costar, Cambridge, USA) with 5 μm pore-width polycarbonate filters. […] Transmigrated cells were stained for CD3 (UCHT1), CD4 (RPA-T4), CD8 (RPA-T8), CD45RO (UCHL1), CCR7 (G043H7), CD69 (FN50), CD103 (Ber-act8), CD38 (HIT32) and HLA-DR (LN3) and analyzed/counted by flow cytometry (MACSquant, Miltenyi biotec, Bergisch Gladbach, Germany). […] The percentage of input was calculated as the ratio between the number of cells migrating in a given condition and the number of cells used for the chemotaxis assay.

[3] = test system: act-CD4+ and act-CD8+ T cells; experiment: Transwell migration of tonsil recently activated T cells (CD38+HLA-DR+) in presence of S1P; assay type: cell-based, human
Description: Upon antigen-mediated activation, T cells are retained within secondary lymphoid organs, presumably to sustain their activation and differentiation through serial interactions with antigen presenting cells. Mechanistically, it was previously reported that mouse T cells lose their reactivity during this phase by down regulating S1PR1 expression (Matloubian et al., 2004). We addressed this point in human, exploiting the fact that tonsils contain act-T cells in a variable proportion, classically defined as CD38^+HLA-DR^+.

S1PR1 = S1PR1 (Homo sapiens, UniProt P21453); settings: read-out: Kd of S1P to S1PR1; cited from earlier work
S1PR1, sequence (P21453 whole entry, species assumed): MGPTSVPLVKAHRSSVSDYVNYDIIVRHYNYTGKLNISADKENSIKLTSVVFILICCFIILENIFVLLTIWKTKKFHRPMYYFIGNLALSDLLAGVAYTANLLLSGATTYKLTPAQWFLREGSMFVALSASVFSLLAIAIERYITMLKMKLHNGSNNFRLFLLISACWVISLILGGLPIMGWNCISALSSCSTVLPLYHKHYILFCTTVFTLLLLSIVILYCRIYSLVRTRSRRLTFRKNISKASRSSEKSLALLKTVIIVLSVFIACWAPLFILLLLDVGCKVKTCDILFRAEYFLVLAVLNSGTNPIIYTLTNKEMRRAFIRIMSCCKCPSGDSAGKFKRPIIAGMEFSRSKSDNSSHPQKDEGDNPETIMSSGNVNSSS

blood T cells = experiment: Transwell chemotaxis of blood T cells (PBMC) towards S1P; assay type: cell-based, human
Description: T cell subsets were identified by flow cytometry.

CCCCCCCCc1ccc(CCC(N)(CO)CO)cc1 [FTY720]
Impact on memory T cell migration in the presence of S1P (tonsil TCM and TEM cells): negative impact
Effect on peripheral TEM cells and NK cells in treated patients [1]: does not affect
Effect on peripheral naive and central memory T cells in treated patients [1]: quick decrease
Effect of pharmacological inhibitor on tonsil naive T cell migration to S1P (tonsil naive T cells; S1P gradient): strongly inhibited

Cc1nn(C)c2nc(NNC(=O)Nc3cc(Cl)nc(Cl)c3)cc(C(C)C)c12 [JTE-013]
Effect on S1P-mediated decrease of CXCL12-induced migration of TEM and TCM cells (tonsil T cell subsets; CXCL12 12 ng/ml, S1P 37 nM, JTE-013 1000 nM for 2 h): abrogated
Effect on S1P inhibition of spontaneous migration of CD4+ TRM cells ([2]; CD69 positive): abrogated
Effect on S1P inhibition of spontaneous migration of act-CD4+ and act-CD8+ T cells ([3]; CD38+HLA-DR+ tonsil T cells): curbed
Effect on the inhibitory effect of S1P on TCM and TEM migration (tonsil TCM and TEM cells; tonsil TCM and TEM cells): abrogated
Effect of pharmacological inhibitor on tonsil naive T cell migration to S1P (tonsil naive T cells; S1P gradient): increased

Cc1cc(CN)cc(C)c1NC(=O)c1ccc(-c2cc(Cl)ccc2Cl)o1 [CYM50358]
Effect of pharmacological inhibitor on tonsil naive T cell migration to S1P (tonsil naive T cells; S1P gradient): insensitive

CCCCCCCCCCCCC/C=C/[C@@H](O)[C@@H](N)COP(=O)(O)O [S1P, Sphingosine-1 phosphate]
Effect of S1P on CXCL12-induced migration of TEM cells (tonsil T cell subsets; S1P 37 nM in lower chamber): decreased
Effect of S1P on CXCL12-induced migration of naive CD4 and CD8 T cells (tonsil T cell subsets; S1P 37 nM in lower chamber): slightly increased
Effect of S1P on spontaneous migration of CD4+ TRM cells [2]: inhibited
Effect of S1P on spontaneous migration of act-CD4+ and act-CD8+ T cells [3]: strongly inhibited
Effect of S1P on spontaneous migration of tonsil TCM and TEM cells (tonsil TCM and TEM cells; S1P in lower chamber, especially memory CD4 T cells): inhibited
pKd (S1PR1): 8.10
Response of blood memory T cells to S1P (blood T cells; PBMC): did not respond
Response of blood naive T cells to S1P (blood T cells; PBMC from healthy donors): did not respond
Effect of S1P gradients on tonsil naive T cell chemotaxis (tonsil naive T cells; compared to control without S1P): strongly increased
S1P concentration giving maximum migration of tonsil naive T cells (tonsil naive T cells; transwell, S1P gradient): 30 to 60 nM

FC(F)(F)c1cccc(-c2noc(-c3cc(-c4ccccc4)c(C(F)(F)F)s3)n2)c1 [SEW2871]
Impact on memory T cell migration in the presence of S1P (tonsil TCM and TEM cells): negative impact
Effect of pharmacological inhibitor on tonsil naive T cell migration to S1P (tonsil naive T cells; S1P gradient): strongly inhibited
